Laboratory results from US20250195469A1, “COMPANION DIAGNOSTICS AND STRATEGIES FOR TREATMENT WITH AN ARYL HYDROCARBON RECEPTOR AGONIST COMPOUND” (AZORA THERAPEUTICS, INC., priority 2022, published 2025).
Where two headings read alike, the source gives them in different places.

Key:
AhR = molecular target: T1, AhR (Homo sapiens, UniProt P35869); test: Inhaled AhR antagonist combined with indirubin therapy; assay type: in vivo; details: two weeks, with nanoparticulate indirubin
T1 construct: takes a biopsy of the treated skin from this treated spot; from tissue; host or cells: human skin biopsy, epidermal cells
T1 sequence (P35869 11-848): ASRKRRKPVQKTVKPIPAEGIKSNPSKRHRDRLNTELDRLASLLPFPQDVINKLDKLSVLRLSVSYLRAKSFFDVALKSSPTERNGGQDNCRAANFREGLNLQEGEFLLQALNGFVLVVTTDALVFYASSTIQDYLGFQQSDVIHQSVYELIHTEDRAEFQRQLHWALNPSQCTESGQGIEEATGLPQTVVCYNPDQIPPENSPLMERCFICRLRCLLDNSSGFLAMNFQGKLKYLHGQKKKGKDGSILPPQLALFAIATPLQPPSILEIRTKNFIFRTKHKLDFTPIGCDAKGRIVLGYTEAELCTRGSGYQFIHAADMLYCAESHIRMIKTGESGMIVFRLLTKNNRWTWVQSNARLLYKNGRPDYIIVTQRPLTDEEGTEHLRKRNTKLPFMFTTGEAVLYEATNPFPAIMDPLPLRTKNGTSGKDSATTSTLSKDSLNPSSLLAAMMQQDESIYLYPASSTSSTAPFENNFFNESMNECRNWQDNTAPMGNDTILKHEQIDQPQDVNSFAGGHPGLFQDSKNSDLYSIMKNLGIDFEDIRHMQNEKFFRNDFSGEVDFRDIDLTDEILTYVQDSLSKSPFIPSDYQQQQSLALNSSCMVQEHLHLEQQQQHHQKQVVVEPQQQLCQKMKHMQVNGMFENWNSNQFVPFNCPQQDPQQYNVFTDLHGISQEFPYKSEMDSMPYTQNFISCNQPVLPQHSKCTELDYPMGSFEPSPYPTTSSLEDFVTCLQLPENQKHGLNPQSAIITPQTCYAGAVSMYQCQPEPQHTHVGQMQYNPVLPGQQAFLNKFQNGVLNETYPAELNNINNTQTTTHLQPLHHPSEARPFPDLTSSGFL
From the text: During the course of therapy with a nanoparticulate form of synthetic indirubin for the treatment of gastritis, a patient complains of ad adverse event, in this case shortness of breath and difficulty doing physical exercise. The patient is responding well to therapy but the doctor is concerned about possible development of additional PAH-like symptoms. The doctor maintains the indirubin therapy but prescribes the patient an inhalable AhR antagonist, in this case inhaled 1-Methyl-N-[2-methyl-4-[2-(2-methylphenyl)diazenyl]phenyl-1H-pyrazole-5-carboxamide (CH223191) that is designed to reduce AhR signaling in the lung epithelium.

PBMCs = test: EROD activity of PBMCs stimulated with AhR agonist; assay type: cell-based, human; details: patient PBMCs, 24 hours, compared to healthy normal PBMCs
Method: Prior to starting therapy with a topical AhR agonist for the treatment of pustular psoriasis, a blood sample is collected. PBMCs are processed and sent out fresh for stimulation with and without the AhR agonist FICZ. After 24 hours, EROD activity is measured. […] The ratio of stimulated to unstimulated EROD activity may be indicative of baseline AhR activity and responsiveness to AhR therapy. […] Based on the data, the patient's dermatologist prescribes the topical AhR agonist for the treatment of pustular psoriasis.

guinea pigs = details: cited from earlier work
hamsters = details: cited from earlier work
mice = details: chronic dosing, only starting after 15 days of exposure; cited from earlier work
ALT and AST = test: Liver enzymes after indigo modified release tablet, with or without lead in dose; assay type: in vivo, human
Method: As such, a product label identified a clinical regiment whereby a lead in dose of 5 mg indigo is administered once daily for 2 consecutive days prior to beginning the 50 mg therapeutic dose.

[1] = Method: A patient with pouchitis is being treated with an oral suspension containing 10 mg indirubin twice daily. Plasma samples are taken weekly during the first 6 weeks of therapy and sent out for PK analysis for indirubin levels. […] The physician reduces the dose to 2.5 mg once per day.
CYP1A1 = tested on: CYP1A1
Method: (§1) A patient with Crohn's disease is given 50 mg of indirubin in an immediate release tablet once daily. A diagnostic is set to evaluate the mRNA levels of both CYP1A1 and CYP1A2 in the blood using RT-PCR of peripheral blood mononuclear cell mRNA every two weeks.

CYP1A2 = tested on: CYP1A2
Method: as §1

[2] = tested on: relapsing-remitting multiple sclerosis patients; details: low dose (0.6 mg/day); cited from earlier work
[3] = Echocardiogram monitoring during linomide therapy (REMS); assay type: in vivo, human; details: oral tablet, after 6 months
From the text: Based on the label of an orally administered tablet containing linomide, a patient must enroll in a risk evaluation and mitigation strategy (REMS). In the case of this drug, patients must comply with ongoing echocardiogram monitoring requirements. […] The prescribing physician evaluates the echocardiogram an decides the patient should be discontinued. The physician passes this information along to the REMS program by logging the data into a secure server. Subsequently the server alerts the patient and the prescribing pharmacy that the patient is no longer eligible to refill their linomide tablet prescription.

[4] = tested on: multiple sclerosis patients; details: Phase 3; cited from earlier work
[5] = AhR agonist metabolism in blood microsomes, AhR-luciferase reporter readout; assay type: in vitro ADME, human; details: 10 nM, 24 hours
Method: Prior to beginning therapy with oral meisoindigo for the treatment of rheumatoid arthritis, a physician orders a diagnostic to assess ability of the subject to adequately metabolize meisoindigo. Blood microsomes are extracted from the subject and incubated in medium containing 10 nM meisoindigo for 24 hours. The microsomes are removed via ultra-centrifugation and the remaining medium is added to a reporter cell line (such as product IB06001 sold by Indigo Biosciences) that expresses luciferase behind the promoter for human CYP1A1 and which can detect AhR agonist activity. […] Based on the results of this diagnostic, the physician believes the patient has a defect making them a poor metabolizer of meisoindigo and recommends against the use of meisoindigo due to the possibility of development of adverse events.

[6] = Headaches with delayed release indirubin, omeprazole lead in dose; details: 20 mg delayed-release capsule before delayed release indirubin, first week
[7] = tested on: plaque psoriasis patients; details: phase 3, plaque psoriasis patients; cited from earlier work
[8] = 50 mg immediate release tablet once daily, after two weeks
[9] = two weeks after reduction to 10 mg every other day

Which “shortness of breath after combination therapy” value (AhR) does the source give for `Cc1ccccc1N=Nc1ccc(NC(=O)c2ccnn2C)c(C)c1` [CH223191] here?
Its value is “no longer has shortness of breath”.

Which “EROD activity after stimulation” value (PBMCs) does the source give for `O=Cc1c2c(cc3c1=Nc1ccccc1-3)=Nc1ccccc1-2` [FICZ, 6-formylindolo[3,2−b]carbazole] here?
The value was “high EROD activity”.

What does the source list for `Clc1cc2c(cc1Cl)Oc1cc(Cl)c(Cl)cc1O2` [TCDD, 2,3,7,8-tetrachlorodibenzo-p-dioxin]?
LD50 (guinea pigs): 1 µg/kg; LD50 (hamsters): over 5000 μg/kg; mean arterial blood pressure (mice): increased

Which results are given for `O=C1/C(=C2\Nc3ccccc3C2=O)Nc2ccccc21` [indigo]?
patients with the ALT and AST increase (ALT and AST; 50 mg twice daily modified release tablet, 2 days): 50%; increase in ALT and AST (ALT and AST; 50 mg twice daily modified release tablet, 2 days following administration): 5 ×; changes in ALT or AST levels (ALT and AST; lead in dose 5 mg once daily for 2 days before 50 mg therapeutic dose, 2 days following therapeutic dosing): did not produce any notable changes

For `O=C1Nc2ccccc2/C1=C1/Nc2ccccc2C1=O` [indirubin], which plasma indirubin level ([1]; week 1, oral suspension 10 mg twice daily) is on record?
The plasma indirubin level was 5 ng/mL.

What about the plasma indirubin level ([1]; week 2, oral suspension 10 mg twice daily) of the same molecule?
Its plasma indirubin level is 25 ng/mL.

What about the plasma indirubin level ([1]; week 3, 2.5 mg once per day) of the same molecule?
Its plasma indirubin level is 2 ng/mL.

And the plasma indirubin level ([1]; week 4, 2.5 mg once per day)?
The plasma indirubin level was 3 ng/mL.

What about the plasma indirubin level ([1]; week 5, 2.5 mg once per day) of the same molecule?
Its plasma indirubin level is 2 ng/mL.

And the plasma indirubin level ([1]; week 6, 2.5 mg once per day)?
The plasma indirubin level was 3 ng/mL.

And the “increase of CYP1A1 mRNA in PBMCs” value (CYP1A1; [8])?
The value was 12 ×.

And the “increase of CYP1A1 mRNA in PBMCs compared to baseline” value (CYP1A1; [9])?
Its value is 15 ×.

What about the “increase of CYP1A2 mRNA in PBMCs” value (CYP1A2; [8]) of the same molecule?
The value was 3 ×.

And the “increase of CYP1A2 mRNA in PBMCs compared to baseline” value (CYP1A2; [9])?
The value was 6 ×.

With `CCN(C(=O)c1c(O)c2c(Cl)cccc2n(C)c1=O)c1ccccc1` [laquinimod] as the molecule, how does the “trial's primary endpoint” value [2] read?
The value was “failed to meet the trial's primary endpoint”.

Which results are given for `CN(C(=O)c1c(O)c2ccccc2n(C)c1=O)c1ccccc1` [linomide, linomide (roquinimex)]?
echocardiogram findings [3]: signs of valvar heart disease; toxicity leading to termination of development [4]: cardiovascular toxicity, specifically pleuritis, pericarditis, and chest pain

Which “fraction of added compound metabolized” value ([5]; microsomes from a healthy normal individual) does the source give for `CN1C(=O)/C(=C2/C(=O)Nc3ccccc32)c2ccccc21` [meisoindigo] here?
Its value is 99%.

And the “metabolism in presence of microsomes” value ([5]; patient blood microsomes)?
The value was “little to no meisoindigo was metabolized”.

For `COc1ccc2[nH]c([S+]([O-])Cc3ncc(C)c(OC)c3C)nc2c1` (stereo not shown) [omeprazole], which “effect of lead in dose on headaches” value [6] is on record?
The value was “reduce the development of headaches”.

Which “patients who developed inflammation of the hair follicle (folliculitis)” value [7] does the source give for `CC(C)c1c(O)cc(/C=C/c2ccccc2)cc1O` [tapinarof] here?
The value was “Over 20%”.
